Target: T1, GAL4-PPARγ chimeric receptor (ligand-binding domain of human PPARγ) (Homo sapiens, UniProt P37231)
T1 construct: expressed in transfected cells; host or cells: COS-7 (monkey kidney)
Assay: Measurement of PPARγ activation effect/modulator activity (GAL4-PPARγ luciferase reporter assay in COS-7 cells)
Assay type: cell-based
Conditions: for Emax: COS-7, maximum luciferase activity, rosiglitazone positive control = 100%, DMSO control = 0%; for EC50: COS-7 cells transfected with pM-PPARγ and pFR-Luc, concentration giving Emax/2
Method: A test was carried out according to the reporter assay method with reference to a report by Kliewer et al. (Journal of Biological Chemistry, 1995, Vol. 270 (22), p. 12953-12956) as a method for measuring the ability of a compound to activate PPARγ (hereinafter PPARγ activation effect/modulator activity). Commercially available reagents and kits were used according to the attached instructions. The details will be shown below.
The ligand-binding domain of human PPARγ (corresponding to about 300 amino acids at the carboxy end) was bound to the DNA-binding domain of the yeast transcription factor GAL4 (corresponding to 147 amino acids at the amino end) with reference to the report by Kliewer et al. to prepare a gene expressing a GAL4-PPARγ receptor.
The plasmid pM-PPARγ obtained by the above operation includes the nucleotide sequence represented by SEQ ID NO: 4 of the Sequence Listing and encodes an amino acid sequence represented by SEQ ID NO: 5 of the Sequence Listing containing amino acids 1 to 147 of the yeast transcription factor GAL4 at the amino end and containing amino acids 175 to 475 of human PPARγ and a stop codon at the carboxy end. The plasmid is a gene that can express a GAL4-PPARγ chimeric receptor in mammalian cells.
The previously acquired plasmid pM-PPARγ and the plasmid pFR-Luc purchased from Stratagene Cloning Systems, Inc. were dissolved in deionised water at a concentration of 1 mg/mL each.
The monkey kidney-derived cell line COS-7 (American Type Culture Collection CRL-1651) was seeded into a 75 cm^2 culture flask and cultured using Dulbecco's modified Eagle's medium containing 10% fetal bovine serum (hereinafter medium) under the conditions of 37° C. and 5% carbon dioxide gas until an approximately 80% confluent state was obtained.
COS-7 cells were transfected with 4.8 micrograms per flask of the plasmid pM-PPARγ and 19.2 μg per flask of the plasmid pFR-Luc using Lipofectamine 2000 transfection reagent (manufactured by Invitrogen Corporation), and the cells were cultured overnight.
On the following day, the cells were harvested by trypsin treatment, suspended in 75 mL of phenol red-free Dulbecco's modified Eagle's medium containing 10% fetal bovine serum, seeded into a white 96-well plate (manufactured by Costar) using the medium in a volume of 95 μL per well, and cultured overnight.
The test compound was dissolved in dimethyl sulfoxide at a concentration of 4 mM. The solution was serially diluted 3.3-fold with dimethyl sulfoxide to prepare solutions of the compound at concentrations up to 400 nM. Dimethyl sulfoxide was prepared for the control group. Rosiglitazone dissolved in dimethyl sulfoxide at a concentration of 4 mM was prepared for the positive control group. They were diluted 20-fold with the medium, and 5 μL of the dilution was added to the wells in which the cells were grown. The concentrations of the test compound treating the cells ranged from 10 μM to 1 nM. After the addition, the cells were cultured overnight.
On the following day, the medium was removed, and Luc Lite (manufactured by PerkinElmer Inc.) was prepared according to the attached document and added at 50 microliters per well. The plate with cells in the Luc Lite was stirred for about 30 minutes. The amount of luminescence in each well was measured as luciferase activity using Analyst (Molecular Devices) for 0.5 second. A dose-dependent curve was drawn.

T1 sequence (P37231 with tags, fused parts or gaps): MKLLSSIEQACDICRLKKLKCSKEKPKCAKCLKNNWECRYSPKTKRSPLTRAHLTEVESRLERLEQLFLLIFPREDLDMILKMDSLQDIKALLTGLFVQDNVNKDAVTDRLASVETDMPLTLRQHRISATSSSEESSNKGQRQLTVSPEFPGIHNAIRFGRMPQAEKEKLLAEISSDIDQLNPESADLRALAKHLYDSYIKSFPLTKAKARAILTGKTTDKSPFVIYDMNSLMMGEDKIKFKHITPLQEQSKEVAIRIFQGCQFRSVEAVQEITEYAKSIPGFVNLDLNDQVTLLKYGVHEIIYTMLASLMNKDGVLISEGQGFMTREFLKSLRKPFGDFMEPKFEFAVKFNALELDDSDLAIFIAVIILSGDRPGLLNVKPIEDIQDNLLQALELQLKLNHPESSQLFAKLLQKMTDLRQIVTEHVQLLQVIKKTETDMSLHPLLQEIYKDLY

Row | Structure (SMILES) | Emax | EC50
1 | Cc1cc(F)cnc1Oc1ccc2nc(COc3cccc(C(=O)O)c3)n(C)c2c1 [Reference Example 8, 3-({6-[(5-Fluoro-3-methylpyridin-2-yl)oxy]-1-methyl-1H-benzimidazol-2-yl}methoxy)benzoic acid] | 100% | 100000 pM
2 | Cc1cnc(Oc2ccc3nc(COc4cccc(C(=O)O)c4)n(C)c3c2)c(F)c1 [Reference Example 9, 3-({6-[(3-Fluoro-5-methylpyridin-2-yl)oxy]-1-methyl-1H-benzimidazol-2-yl}methoxy)benzoic acid] | 74% | 43000 pM
3 | CCc1cnc(Oc2ccc3nc(COc4cccc(C(=O)O)c4)n(C)c3c2)c(C)c1 [Reference Example 11, 3-({6-[(5-Ethyl-3-methylpyridin-2-yl)oxy]-1-methyl-1H-benzimidazol-2-yl}methoxy)benzoic acid] | 82% | 260000 pM
4 | CCc1cc(C)cnc1Oc1ccc2nc(COc3cccc(C(=O)O)c3)n(C)c2c1 [Reference Example 12, 3-({6-[(3-Ethyl-5-methylpyridin-2-yl)oxy]-1-methyl-1H-benzimidazol-2-yl}methoxy)benzoic acid] | 83% | 71000 pM
5 | COc1c(C)cnc(Oc2ccc3nc(COc4cccc(C(=O)O)c4)n(C)c3c2)c1C [Reference Example 14, 3-({6-[(4-Methoxy-3,5-dimethylpyridin-2-yl)oxy]-1-methyl-1H-benzimidazol-2-yl}methoxy)benzoic acid] | 67% | 69000 pM
6 | Cc1cc(C)c(Oc2ccc3nc(COc4cccc(C(=O)O)c4)n(C)c3c2)nc1C [Reference Example 15, 3-({1-Methyl-6-[(3,5,6-trimethylpyridin-2-yl)oxy]-1H-benzimidazol-2-yl}methoxy)benzoic acid] | 94% | 120000 pM

— patent US20130204009A1, “PROCESS FOR PREPARING BENZOIC ACID ESTERS” (Daiichi Sankyo Company, Limited, priority 2010, published 2013)
